# Measured values as given in patent publication US12084680B2, “Methods for efficient derivation of human motor neurons from diverse spinal regions” (Wisconsin Alumni Research Foundation, priority 2016, dated 2024).
# B1: BMP4: a dorsal patterning factor (protein, UniProt P12644 293-408, looked up)
# Bone morphogenetic protein 4: SPKHHSQRARKKNKNCRRHSLYVDFSDVGWNDWIVAPPGYQAFYCHGDCPFPLADHLNSTNHAIVQTLVNSVNSSIPKACCVPTELSAISMLYLDEYDKVVLKNYQEMVVEGCGCR
# B2: WNT3A: soluble WNT3A, Wnt polypeptide ligand activating Wnt/β-catenin signaling (protein, UniProt P56704 19-352, looked up)
# Protein Wnt-3a: SYPIWWSLAVGPQYSSLGSQPILCASIPGLVPKQLRFCRNYVEIMPSVAEGIKIGIQECQHQFRGRRWNCTTVHDSLAIFGPVLDKATRESAFVHAIASAGVAFAVTRSCAEGTAAICGCSSRHQGSPGKGWKWGGCSEDIEFGGMVSREFADARENRPDARSAMNRHNNEAGRQAIASHMHLKCKCHGLSGSCEVKTCWWSQPDFRAIGDFLKDKYDSASEMVVEKHRESRGWVETLRPRYTYFKVPTERDLVYYEASPNFCEPNPETGSFGTRDRTCNVSSHGIDGCDLLCCGRGHNARAERRREKCRCVFHWCCYVSCQECTRVYDVHTCK
# Legend:
# Format in all cases: cell-based, human
# H9 hESCs [1] = assay: NKX6.1 induction in neurally differentiating H9 hESCs after 24 h treatment (flow cytometry, RT-PCR, day 3)
# Protocol: (§1) NKX6.1 is the earliest expressed marker in the motor neuron development cascade in vivo, so we examined its expression in response to Wnt/β-catenin, RA, and SHH signaling during hPSC motor neuron differentiation. H9 hESCs were differentiated in E6 medium for 2 days to initiate neural fate acquisition34 and then treated with combinations of RA, purmorphamine (PM, a small molecule agonist of SHH signaling), and CHIR for 24 h (FIG. 4A). […] Using the H9 ishcat2 line, we observed that CHIR-mediated induction of NKX6.1 was β-catenin-dependent, as the optimal 3 days of shRNA-mediated CTNNB1 knockdown upstream of CHIR treatment was required to maximally reduce NKX6.1 induction to 44±1% (FIG. 4E). The correlation between NKX6.1 knockdown and days of doxycycline treatment was presumably due to the time delay for shRNA synthesis and subsequent gene knockdown in Tet-on systems. […] Exogenously added WNT3A (200 ng/mL) could also induce NKX6.1 expression (60±14%) (FIG. 4G), providing further evidence for the involvement of Wnt/β-catenin signaling in this process. In contrast, simultaneous treatment with CHIR and BMP4 (200 ng/mL), a dorsal patterning factor, reduced the expression of NKX6.1 from 91±1% to 68±2% (FIG. 4H).
# (§2) hESCs were dissociated with accutase (Thermo Fisher Scientific) and reseeded at 1×10^5 cells/cm2 in E8 medium containing 10 μM ROCK inhibitor (Y27632; R&D Systems) on 6-well polystyrene tissue culture plates coated with 100 μg/mL poly-L-ornithine (PLO; Sigma) and 8 μg/well VTN-NC. The timelines and relevant growth factors/small molecules for all differentiation procedures are described in detail in the Results section and its accompanying figures. Cells were differentiated for various amounts of time in E6 medium containing the same insulin concentration as E8 medium as described above with varying combinations of soluble factors (product information and concentration ranges are found in Table 2). For neuromesodermal induction and HOX propagation, cells were sequentially cultured with FGF8b, CHIR99021 (CHIR), GDF11, and dorsomorphin (DM) as previously described. Briefly, to initiate the neuromesodermal state, cells were changed to E6 medium followed by addition of FGF8b (200 ng/ml) 24 h later. To generate cervical neuromesodermal progenitors, cells were washed with PBS, treated with accutase, and re-seeded in E6 medium containing 200 ng/ml FGF8b, 3 μM CHIR, and 10 μM Y27632 on VTN-NC-coated plates at a density of 1.5×10^5 cells/cm^2 for 48 h. To generate thoracic neuromesodermal progenitors, cells were passaged again after 72 h of CHIR treatment and re-seeded at different densities as described in the text.
# Thoracic identity was reached after an additional 24 h. Then, to reach the lumbosacral level, cells were given 30 ng/ml GDF11 and 1 μM DM for an additional 48 h. For neuroectoderm induction and generation of OLIG2^+ progenitors, FGF8b was removed at the designated time points and the concentration of CHIR was increased for 6 h as described in the text, followed by a transition to media containing RA, PM, and SHH for a period of 48 h. For differentiation of the OLIG2^+ progenitors to motor neurons, cells were subcultured by en bloc passage using a cell scraper, reseeded at a 1:200 ratio in Matrigel-coated 8-well chamber slides, and differentiated for 14 days in E6 medium containing 1 μM RA, 100 nM PM, and 100 ng/mL SHH, with media exchange every 3 days (10 μM Y27632 was included during the en bloc passaging step and removed after the first media exchange). For differentiation of lumbar cultures, 1 μM DM was included in all steps. For the myoblast co-culture experiments, OLIG2^+ cultures were en bloc passaged, frozen in E6 medium containing 10% DMSO, shipped to a different location, and thawed 1:10 in 6-well plates under the same conditions as described in FIG. 5. To facilitate neuronal maturation prior to myoblast co-culture, 5 μM DAPT (Tocris) was added from days 8-14 post-thaw. […]
# H9 ishcat2 hESC line = assay: Doxycycline-inducible shRNA knockdown of β-catenin (CTNNB1) during motor neuron differentiation; details: doxycycline 2 μg/mL
# Protocol: In the ventral neural tube, SHH signaling generates OLIG2^+ motor neuron progenitors that subsequently mature into post-mitotic ISL1^+ and/or HB9^+ motor neurons. To probe the role of Wnt/β-catenin signaling during this process in vitro, we utilized the H9 ishcat2 hESC line, which harbors a doxycycline-inducible shRNA against CTNNB1.
# Similarly, we induced β-catenin knockdown while differentiating the hESCs into motor neurons via E6 neural induction with RA (1 μM), purmorphamine (PM, a small molecule agonist of sonic hedgehog signaling; 100 nM), and neurotrophic factor treatment, as previously described (FIG. 3A).
# as §1
# hESCs were maintained on Matrigel (BD Biosciences) in E8 medium but with 10-fold lower insulin concentration (2 mg/L). Cell lines used in this study were H9 hESCs (passage 25-45) and H9 ishcat2 hESCs (passage 35-45). […]
# H9 hESCs [2] = assay: Induction of NKX6.1+/PAX6+/OLIG2+ motor neuron progenitors from cervical neuromesoderm (flow cytometry, immunocytochemistry); details: RA 1 μM for 2 days without PM or SHH, day 6
# Protocol: To begin, we sequentially differentiated H9 hESCs in E6 media for 1 day, and FGF8b (200 ng/mL) for 1 day, and FGF8b and CHIR (3 μM) for 2 days to generate cervical neuromesoderm (FIGS. 5A-5B). Then, we screened the effects of CHIR, PM, and SHH treatment on NKX6.1^+/PAX6^+/OLIG2^+ motor neuron progenitor induction while transitioning to media containing 1 μM RA (FIGS. 5A-5D). Prior to the addition of RA, NKX6.1 was expressed in the cervical neuromesodermal state at day 4 (80±18% NKX6.1^+; data not shown), likely due to the CHIR-induced Wnt/β-catenin signaling (FIGS. 4A-4H). Transitioning the neuromesodermal progenitors to RA-containing media for 2 days induced HOXB4^+/HOXC6^+/HOXC9^−/HOXD10^−/PAX6^+ cervical neuroectoderm in all conditions (FIGS. 5B-5C), as expected. However, without co-activation of SHH signaling by PM or SHH, NKX6.1 expression was quickly lost by day 6 (97±1% PAX6^+, 17±3% NKX6.1^+) (FIG. 5C). […] To bolster this claim, we also analyzed the abundance of full-length GLI3 versus its truncated repressor form by western blot. […] Thus, Wnt/β-catenin signaling is necessary to induce ventral identity, but its continuous activation during OLIG2 induction by SHH signaling is detrimental to motor neuron differentiation, possibly due to activation of the GLI3 repressor.
# Next, we tested conditions where CHIR was removed after transitioning to media containing RA (1 μM), PM (2 μM), and SHH (2 μg/mL) (FIGS. 5A-5C).
# Since NKX6.1 is a pre-requisite to OLIG2 expression, we hypothesized that the Wnt/β-catenin signaling-dependent NKX6.1 expression levels may still be too low for efficient OLIG2^+ motor neuron progenitor induction. Therefore, the concentration of CHIR was boosted to 6 or 9 μM for 6 h immediately prior to transitioning to E6 medium containing RA, PM, and SHH without CHIR (FIG. 5A). The 9 μM CHIR boost followed by a transition to media containing 1 μM RA, 2 μM PM, and 2 μg/mL SHH yielded optimal motor neuron progenitor cultures with highly uniform NKX6.1, OLIG2, and PAX6 expression (96±1%, 85±9%, and 97±2%, respectively) (FIGS. 5C-5D).
# as §2
# (§3) Thoracic identity was reached after an additional 24 h. Then, to reach the lumbosacral level, cells were given 30 ng/ml GDF11 and 1 μM DM for an additional 48 h. For neuroectoderm induction and generation of OLIG2^+ progenitors, FGF8b was removed at the designated time points and the concentration of CHIR was increased for 6 h as described in the text, followed by a transition to media containing RA, PM, and SHH for a period of 48 h. […]
# H9 hESCs [3] = assay: Differentiation of cervical OLIG2+ progenitors to post-mitotic motor neurons (immunocytochemistry, flow cytometry); details: 20 total days of differentiation, SHH, or SAG 2 μM instead of SHH
# Description: Having optimized the efficiency of OLIG2 induction at diverse spinal cord regions, next region-specific post-mitotic motor neurons were generated. Cervical OLIG2^+ motor neuron progenitors were en bloc passaged and gradually differentiated to ISL1^+ motor neurons over a 14-day period (FIGS. 7A-7B). […] The extensive co-labeling of ISL1^+ cells with SMI32-reactive non-phosphorylated neurofilament heavy chain is indicative of motor neuron identity. Widespread HB9/βIII-tubulin motor neuron expression was also observed throughout the cultures (FIG. 7C). Since spinal motor neurons in vivo are observed to be both ISL1^+, ISL1^+/HB9^+, and HB9^+ but are all SMI32 reactive, flow cytometry of the SMI32^+ cells is proposed to best represent the total percentage of motor neurons in each culture. Moreover, the use of SAG (2 μM), a small molecule Smoothened agonist45, instead of SHH yielded similar efficiencies (72±4% SMI32^+, 63±13% ISL1^+, and 65±15% HB9^+) (FIG. 7C). High efficiencies were also observed for thoracic cultures, whereas lumbar cultures saw a ˜10% decrease in efficiency (FIG. 7C). For all regions, ISL1^+ motor neurons predominantly co-labeled with FOXP1 (70-80% in cervical motor neurons and 40-60% in thoracic and lumbar motor neurons) versus LHX3 markers (20-30% in cervical and thoracic cultures and 15-20% in lumbar cultures) (FIG. 7C). […] These trends agree with the observed distribution of columnar motor neuron phenotype in the cervical, thoracic and lumbar spinal cord in vivo, and it is consistent with our prior observations of motor neuron populations derived using the deterministic HOX patterning protocol.
# as §3
molecule,measurement,setting,value
CC1=C2C[C@H]3[C@@H](CC=C4C[C@@H](O)CC[C@@]43C)[C@@H]2CC[C@]12O[C@@H]1C[C@H](C)CN[C@H]1[C@H]2C [Cyclopamine],NKX6.1 expression (flow cytometry),"H9 hESCs [1]; CHIR 6 μM plus Cyclopamine 5 μM, 24 h",did not diminish NKX6.1 expression
C[C@H]1c2cccc(O)c2C(=O)C2=C(O)[C@]3(O)C(=O)C(C(N)=O)=C(O)[C@@H](N(C)C)[C@@H]3[C@@H](O)[C@@H]21 [Doxycycline],reduction of CTNNB1 expression (qPCR relative to RPS18),H9 ishcat2 hESC line; day 3,87%
same,NKX6.1 expression (flow cytometry),"H9 ishcat2 hESC line; β-catenin knockdown, day 16",2±1%
"c1ccc2c(Oc3nc(Nc4ccc(N5CCOCC5)cc4)c4ncn(C5CCCCC5)c4n3)cccc2c1 [PM, Purmorphamine]",NKX6.1 induction within 24 h,"H9 hESCs [1]; combined RA 1 μM and PM 1 μM, no CHIR",did not induce NKX6.1
"CC1=C(/C=C/C(C)=C/C=C/C(C)=C/C(=O)O)C(C)(C)CCC1 [RA, Retinoic acid]",NKX6.1+ cells,H9 hESCs [2],17±3%
same,PAX6+ cells,H9 hESCs [2],97±1%
CNC1CCC(N(Cc2cccc(-c3ccncc3)c2)C(=O)c2sc3ccccc3c2Cl)CC1 (centres unmarked) [SAG],HB9+ cells,H9 hESCs [3],65±15%
same,ISL1+ cells,H9 hESCs [3],63±13%
same,SMI32+ cells,H9 hESCs [3],72±4%
B1,NKX6.1 expression (flow cytometry),"H9 hESCs [1]; simultaneous CHIR 4 μM and BMP4 200 ng/mL, day 3",68±2%
B2,NKX6.1 expression (flow cytometry),"H9 hESCs [1]; WNT3A 200 ng/mL, day 3",60±14%
